# According to patent US10758519B2, “UCP-1 expression promoter” (Kao Corporation, priority 2014, dated 2020):
# Marks after values point to notes of the source that are not given here.
# Tests used:
# [1] = Blood (serum) analysis, Example B6; type: in vivo, mouse; conditions: 14th day after operation, high-fat diet
# Description: Each C57BL/6J (SLC, male, 7 weeks old) was allowed to freely eat High-Fat Diets with 60 cal % Fat (Research Diets, Inc.) and freely drink tap water. The body weight was measured every week. After 10 weeks, the mice were divided into 4 groups such that the average body weight was equivalent among the groups (n=8). The breeding environment was set to room temperature of 23±2° C., a humidity of 55±10%, and a light period of 7 a.m. to 7 p.m.
# A 1/13 diluted solution of Somnopentyl was intraperitoneally administered at 10 mL/kg body weight, and then, an analgesic pentazocine was subcutaneously injected at 1 mg/kg body weight. After shaving of the back, an osmotic pump Alzet (DURECT Corp.) filled with the agents given below was implanted to thereby continuously administer the agents.
# Group 2: PPARγ activator (rosiglitazone (Rosi); 5 mg/kg body weight/day)+Smad3 inhibitor (SIS3; 5 mg/kg body weight/day)
# Group 3; β3 adrenaline receptor activator (CL316,243; 0.1 mg/kg body weight/day)
# Group 4; PPARγ activator (rosiglitazone (Rosi); 5 mg/kg body weight/day)+Smad3 inhibitor (SIS3; 5 mg/kg body weight/day)+β3 adrenaline receptor activator (CL316,243; 0.1 mg/kg body weight/day)
# Anatomy was performed on the 14th day after the operation. Blood was collected from the abdominal vena cava under isoflurane anesthesia. Then, each tissue shown below was collected and the weight of the tissue was measured. The significant difference was tested using a multiple comparison test by the Turkey-Kramer method (different letters indicate significant difference with P<0.05).
# Serum from the blood obtained by the anatomy described above was subjected to componential analysis using commercially available measurement kits described below.
# Adiponectin: adiponectin ELISA kit (Otsuka Pharmaceutical Co., Ltd.)
# Insulin: insulin measurement kit (Morinaga Institute of Biological Science, Inc.)
# Glucose: N-Assay Glu-UL (Nittobo Medical Co., Ltd.)
# Total cholesterol: N-Assay L T-CHO-H (Nittobo Medical Co., Ltd.)
# Triglyceride: N-Assay TG-H (Nittobo Medical Co., Ltd.)
# NEFA: NEFA-HA Test Wako (Wako Pure Chemical Industries, Ltd.)
# UCP-1 = UCP-1 expression-inducing action in rat preadipocytes (quantitative PCR), Example B1; type: cell-based
# Description: The abdominal subcutaneous fat tissues of a Wistar-rat (male, 8 weeks old) were chopped with a surgical knife in a collagenase buffer (0.05% collagenase+4% BSA in Hank's buffer), and then, the chopped tissues were incubated at 37° C. for 15 minutes while shaken. After addition of an appropriate amount of a medium (high glucose DMEM (Invitrogen Corp.)+10% fetal, bovine serum (FBS) (AusGeneX PTY LTD.)+100 units/mL penicillin+[…] streptomycin (Invitrogen Corp.)), the obtained cell suspension was centrifuged at 1,000 rpm for 5 minutes. The supernatant was removed to obtain pellets (SVF: stromal vascular fraction). The SVF was suspended in a DMEM (+10% FBS+penicillin+streptomycin) medium, inoculated to a T-175 flask, cultured for 4 days, and used as preadipocytes.
# The preadipocytes were inoculated to a 12-well plate coated with type I collagen. On the next day, the PPARγ activator (rosiglitazone (Rosi) (Wako Pure Chemical Industries, Ltd.), final concentration: 1 μM) and/or the Smad3 inhibitor (SIS3 (Sigma-Aldrich Corp.), final concentration: 10 μM) was added thereto. After culture for 7 days, the β3 adrenaline receptor activator (norepinephrine (NE) (Wako Pure Chemical Industries, Ltd.), final concentration: 1 μM)) was added thereto, and the cells were cultured for 2 hours, then washed with PBS, and recovered.
# Total RNA was extracted according to a standard method using RNeasy Mini Kit (Qiagen N.V.). The total RNA was reverse-transcribed according to a standard method using High Capacity RNA-to-cDNA Kit (Applied Biosystems by Life Technologies).
# Quantitative PCR was performed with the obtained cDNA (30 ng/well) as a template using 7500 Fast Real-Time PCR System (Applied Biosystems by Life Technologies). The expression level of each gene was corrected with a 36B4 gene expression level as an internal standard. Control excluded the agents described above.
# (§1) The preadipocytes (n=3) obtained as described above were inoculated to a 12-well plate coated with type I collagen. On the next day, the PPARγ activator (rosiglitazone (Rosi) (Wako Pure Chemical Industries, Ltd.) or pioglitazone (Wako Pure Chemical Industries, Ltd.); 1 μM) and the Smad3 inhibitor (SIS3 (Sigma-Aldrich Corp.), 10 μM) were added thereto. After culture for 7 days, the cells were treated with the β3 adrenaline receptor activator (norepinephrine (Wako Pure Chemical Industries, Ltd.), 1 μM) for 2 hours and then recovered.
# The preadipocytes were collected by trypsin treatment and transfected with siRNA against each Smad by electroporation using Neon transfection System. (Invitrogen Corp.). The preadipocytes (3×10^5 cells) were transfected with 50 pmol of the siRNA (Life Technologies) under conditions of 1150 V/20 ms/3 pulses, suspended in a DMEM (+10% FBS+100 units/mL penicillin+[…] streptomycin) medium, and then inoculated to a 12-well plate coated with type I collagen. After 6 hours, rosiglitazone was added thereto, and the cells were cultured with the medium replaced with fresh one every day. Four days after the inoculation, the cells were treated with norepinephrine for 2 hours and then recovered, and the UCP-1 expression level was analyzed by using RT-PCR. For a control, rosiglitazone, SIS3, and norepinephrine were added in the same approach as above to cells transfected with random siRNA, followed by analysis.
# as §1, with “Ltd.), 10” for “Ltd.) or pioglitazone (Wako Pure Chemical Industries, Ltd.); 1”, “Corp.) or SB431542 (Sigma-Aldrich Corp.);” for “Corp.),”
# The preadipocytes (n=3) were inoculated to a 12-well plate coated with type I collagen. […]
# human TGR5 = molecular target: T1, human TGR5 (Homo sapiens, UniProt Q8TDU6); test: TGR5-activating action, CRE luciferase reporter in HEK293 cells, Reference Example 3; type: cell-based; conditions: material 0.001%, 12 to 18 hours; relative to control defined as 1; FIG. 22
# T1 construct: expressed in transfected cells; host or cells: HEK293
# T1 sequence (Q8TDU6 1-330): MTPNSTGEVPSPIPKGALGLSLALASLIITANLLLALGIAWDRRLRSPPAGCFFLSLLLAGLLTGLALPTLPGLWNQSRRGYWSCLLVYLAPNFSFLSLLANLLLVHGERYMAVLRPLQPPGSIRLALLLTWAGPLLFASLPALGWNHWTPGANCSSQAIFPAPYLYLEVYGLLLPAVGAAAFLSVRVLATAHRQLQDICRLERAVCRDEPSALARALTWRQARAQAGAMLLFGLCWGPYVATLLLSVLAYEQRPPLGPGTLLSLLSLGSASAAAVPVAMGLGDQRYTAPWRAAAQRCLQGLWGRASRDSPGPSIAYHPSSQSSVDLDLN
# Description: HEK293 cells were inoculated at 1.0×10^5 cells/well to a 24-well plate and cultured in a DMEM medium containing 5% charcoal-treated FBS for 1 day. Then, the cells were transfected with 200 ng/well of a firefly luciferase reporter vector pGL4.29[luc2P/CRE/Hygro](Promega Corp.) containing a cAMP-responsive element (CRE), 40 ng/well of a human TGR5 expression vector hTGR5 (pcDNA3.1+), and 80 ng/well of phRL-TK (Renilla luciferase vector for gene, transfection efficiency correction) using Superfect transfection reagent (Qiagen N.V.). After 3 hours, the medium was replaced with a DMEM medium containing 5% charcoal-treated […]. After another 4 hours, each material shown in Table 4 below was added thereto at a final concentration of 0.001%. 12 to 18 hours thereafter, the luciferase activities were measured using DualGlo luciferase assay system (Promega Corp.). The TGR5-activating action was evaluated by correcting the firefly luciferase activity with the Renilla luciferase activity. The TGR5-activating action was indicated by relative values to the TGR5 activity in a control defined as 1.
# Smad3 = test: TGF-β stimulation-responsive Smad3 phosphorylation in HEK293 cells (Western blotting), Reference Example 1; type: cell-based; conditions: material 0.002% (luteolin 2 μM) or 0.01% (luteolin 10 μM), 2 hours, then 0.03 μg/mL TGF-β 20 minutes, FIG. 20
# Description: HEK293 cells were inoculated at 3×10^5 cells/well to a 6-well dish and cultured overnight in DMEM containing 5% charcoal-treated FBS. On the next day, the medium was replaced with serum-free DMEM supplemented with each material shown in Table 2 below at a final concentration of 0.002% (luteolin: 2 μM) (low-concentration sample) or a final concentration of 0.01% (luteolin: 10 μM) (high-concentration sample). After 2 hours, 0.03 μg/mL TGF-β was added to each well, and the cells were incubated for 20 minutes. After removal of the medium, the resulting cells were washed with PBS and then recovered. The recovered cells were added with Lysis buffer and well homogenized. The cells were left to stand for 15 minutes on ice and then ultrasonically disrupted, and a supernatant centrifuged at 12,000 rpm at 4° C. for 10 minutes was obtained as a protein solution. A prepared sample containing […] of the protein and a ¼ volume of 4×SDS Sample buffer (Novagen) per lane was thermally denatured at 95° C. for 5 minutes and then used in SDS-PAGE. The protein was transferred to Immun-Blot™ PVDF Membrane (Bio-Red Laboratories, Inc.) and subjected to blocking and antibody reaction by the procedures given below, and α-Tubulin and Smad3 were detected together using ECL prime western blotting detection system (Amersham plc). […]
# [2] = Smad3 inhibitor 10 μM with rosiglitazone 10 μM (7 days) and norepinephrine 1 μM (2 hours), FIG. 8
# [3] = β3 adrenaline receptor activator 1 μM for 2 hours added to rosiglitazone 1 μM and SIS3 10 μM (7 days), FIG. 9
# [4] = PPARγ activator 1 μM added to SIS3 10 μM (7 days) and norepinephrine 1 μM (2 hours), FIG. 6
smiles,measurement,setting,value
"C[C@H](Cc1ccc2c(c1)OC(C(=O)[O-])(C(=O)[O-])O2)NC[C@H](O)c1cccc(Cl)c1.[Na+].[Na+] [CL316,243]",Glucose,[1],274.9 ± 19.6^a mg/dl
same,Insunlin,[1],3.05 ± 0.30^ab ng/ml
same,NEFA,[1],0.92 ± 0.09^a mEq/l
same,Total cholesterol,[1],151.1 ± 4.8^ac mg/dl
same,Triglyceride,[1],77.2 ± 7.8^ab mg/dl
same,Adiponectin,"[1]; Rosi 5, SIS3 5, CL316,243 0.1 mg/kg body weight/day",36.9 ± 6.9^ab μg/ml
NC(=O)c1ccc(-c2nc(-c3ccc4c(c3)OCO4)c(-c3ccccn3)[nH]2)cc1 [SB431542],expression level of UCP-1,UCP-1; [2],synergistically increased
"COc1cc2c(cc1OC)CN(C(=O)/C=C/c1c(-c3ccccc3)n(C)c3ncccc13)CC2 [SIS3, 6,7-dimethoxy-2-((2E)-3-(1-methyl-2-phenyl-1H-pyrrolo[2,3-b]pyridin-3-yl-prop-2-enoyl))-1,2,3,4-tetrahydroisoquinoline]",expression level of UCP-1,UCP-1; [2],synergistically increased
C[C@H](CCC(=O)O)[C@H]1CC[C@H]2[C@@H]3[C@H](O)C[C@@H]4C[C@H](O)CC[C@]4(C)[C@H]3C[C@H](O)[C@]12C [cholic acid],TGR5-activating action,human TGR5,confirmed to have a TGR5-activating action
CCCCC[C@H](O)CC(=O)CCc1ccc(O)c(OC)c1 [gingerol],TGR5-activating action,human TGR5,confirmed to have a TGR5-activating action
O=c1cc(-c2ccc(O)c(O)c2)oc2cc(O)cc(O)c12 [luteolin],TGF-β stimulation-responsive Smad3 hyperphosphorylation (Smad3-inhibiting action),Smad3,confirmed to have a Smad3-inhibiting action
Nc1nc(CC(=O)Nc2ccc(CCNC[C@H](O)c3ccccc3)cc2)cs1 [mirabegron],expression level of UCP-1,UCP-1; [3],synergistically increased
NC[C@H](O)c1ccc(O)c(O)c1 [norepinephrine],expression level of UCP-1,UCP-1; [3],synergistically increased
CCc1ccc(CCOc2ccc(CC3SC(=O)NC3=O)cc2)nc1 (stereo not drawn) [pioglitazone],expression level of UCP-1,UCP-1; [4],synergistically increased
CN(CCOc1ccc(CC2SC(=O)NC2=O)cc1)c1ccccn1 (stereo not drawn) [rosiglitazone],expression level of UCP-1,UCP-1; [4],synergistically increased
